Source: patent US12479847B2 (DANA-FARBER CANCER INSTITUTE, INC., priority 2019, dated 2025)

Experiments:
Assay in all cases: KINOMEscan (ScanMAX) kinase profiling
Format in all cases: binding
panel of 468 kinases [1] = target: T1, panel of 468 kinases (Homo sapiens, UniProt O00238); settings: BMPR1B; 1 μM; read-out: % control
T1 construct: purchased KINOMEscan (ScanMAX) service

panel of 468 kinases [2] = target: T2, panel of 468 kinases (Homo sapiens, UniProt O14920); settings: IKK-beta; 1 μM; read-out: % control
T2 construct: purchased KINOMEscan (ScanMAX) service
T2 sequence (O14920 1-756): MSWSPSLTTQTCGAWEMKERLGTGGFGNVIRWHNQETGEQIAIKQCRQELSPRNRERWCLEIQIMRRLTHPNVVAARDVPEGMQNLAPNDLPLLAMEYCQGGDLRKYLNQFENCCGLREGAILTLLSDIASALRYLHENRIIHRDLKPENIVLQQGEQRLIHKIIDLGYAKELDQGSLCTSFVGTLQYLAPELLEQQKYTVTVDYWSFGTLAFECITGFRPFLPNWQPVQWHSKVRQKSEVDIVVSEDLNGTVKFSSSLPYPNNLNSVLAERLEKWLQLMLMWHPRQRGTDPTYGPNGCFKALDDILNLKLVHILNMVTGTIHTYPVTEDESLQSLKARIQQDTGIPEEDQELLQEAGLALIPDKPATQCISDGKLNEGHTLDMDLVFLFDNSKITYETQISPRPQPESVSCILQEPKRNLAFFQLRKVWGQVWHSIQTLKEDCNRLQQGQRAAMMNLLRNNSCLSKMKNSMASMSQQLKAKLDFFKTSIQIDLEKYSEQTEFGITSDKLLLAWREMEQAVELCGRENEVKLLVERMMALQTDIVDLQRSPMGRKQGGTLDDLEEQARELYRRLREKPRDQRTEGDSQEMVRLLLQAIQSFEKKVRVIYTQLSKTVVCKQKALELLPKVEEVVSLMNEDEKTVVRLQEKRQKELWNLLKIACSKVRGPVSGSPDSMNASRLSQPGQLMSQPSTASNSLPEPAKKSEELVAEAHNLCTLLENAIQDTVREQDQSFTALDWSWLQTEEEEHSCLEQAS

panel of 468 kinases [3] = target: T3, panel of 468 kinases (Homo sapiens, UniProt P27361); settings: ERK1; 1 μM; read-out: % control
T3 construct: purchased KINOMEscan (ScanMAX) service
T3 sequence (P27361 whole entry): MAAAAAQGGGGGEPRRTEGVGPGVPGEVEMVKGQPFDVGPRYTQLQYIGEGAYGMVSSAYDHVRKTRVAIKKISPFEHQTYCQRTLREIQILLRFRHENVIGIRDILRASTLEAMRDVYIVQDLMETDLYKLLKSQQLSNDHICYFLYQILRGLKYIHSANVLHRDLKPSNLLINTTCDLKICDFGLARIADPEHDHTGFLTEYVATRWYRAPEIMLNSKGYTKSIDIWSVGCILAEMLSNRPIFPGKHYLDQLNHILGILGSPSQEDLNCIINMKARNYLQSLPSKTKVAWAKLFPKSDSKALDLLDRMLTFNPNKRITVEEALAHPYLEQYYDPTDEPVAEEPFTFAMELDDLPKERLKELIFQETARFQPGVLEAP

panel of 468 kinases [4] = target: T4, panel of 468 kinases (Homo sapiens, UniProt P49760); settings: CLK2; 1 μM; read-out: % control
T4 construct: purchased KINOMEscan (ScanMAX) service
T4 sequence (P49760 whole entry): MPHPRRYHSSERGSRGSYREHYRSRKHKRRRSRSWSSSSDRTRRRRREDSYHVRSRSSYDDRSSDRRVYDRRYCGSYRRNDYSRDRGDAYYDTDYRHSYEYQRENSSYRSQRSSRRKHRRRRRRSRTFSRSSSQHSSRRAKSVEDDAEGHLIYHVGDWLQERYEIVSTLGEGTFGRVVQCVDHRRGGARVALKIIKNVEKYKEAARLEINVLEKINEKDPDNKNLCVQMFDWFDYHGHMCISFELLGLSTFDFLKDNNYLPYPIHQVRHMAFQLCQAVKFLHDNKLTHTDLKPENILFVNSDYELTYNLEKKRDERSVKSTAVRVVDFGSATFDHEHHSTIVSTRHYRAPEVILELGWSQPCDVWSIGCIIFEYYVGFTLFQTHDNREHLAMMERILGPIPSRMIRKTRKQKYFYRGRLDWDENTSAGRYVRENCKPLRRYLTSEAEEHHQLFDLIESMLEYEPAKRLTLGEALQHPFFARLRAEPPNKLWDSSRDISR

panel of 468 kinases [5] = target: T5, panel of 468 kinases (Homo sapiens, UniProt Q02779); settings: MLK2; 1 μM; read-out: % control
T5 construct: purchased KINOMEscan (ScanMAX) service
T5 sequence (Q02779 whole entry): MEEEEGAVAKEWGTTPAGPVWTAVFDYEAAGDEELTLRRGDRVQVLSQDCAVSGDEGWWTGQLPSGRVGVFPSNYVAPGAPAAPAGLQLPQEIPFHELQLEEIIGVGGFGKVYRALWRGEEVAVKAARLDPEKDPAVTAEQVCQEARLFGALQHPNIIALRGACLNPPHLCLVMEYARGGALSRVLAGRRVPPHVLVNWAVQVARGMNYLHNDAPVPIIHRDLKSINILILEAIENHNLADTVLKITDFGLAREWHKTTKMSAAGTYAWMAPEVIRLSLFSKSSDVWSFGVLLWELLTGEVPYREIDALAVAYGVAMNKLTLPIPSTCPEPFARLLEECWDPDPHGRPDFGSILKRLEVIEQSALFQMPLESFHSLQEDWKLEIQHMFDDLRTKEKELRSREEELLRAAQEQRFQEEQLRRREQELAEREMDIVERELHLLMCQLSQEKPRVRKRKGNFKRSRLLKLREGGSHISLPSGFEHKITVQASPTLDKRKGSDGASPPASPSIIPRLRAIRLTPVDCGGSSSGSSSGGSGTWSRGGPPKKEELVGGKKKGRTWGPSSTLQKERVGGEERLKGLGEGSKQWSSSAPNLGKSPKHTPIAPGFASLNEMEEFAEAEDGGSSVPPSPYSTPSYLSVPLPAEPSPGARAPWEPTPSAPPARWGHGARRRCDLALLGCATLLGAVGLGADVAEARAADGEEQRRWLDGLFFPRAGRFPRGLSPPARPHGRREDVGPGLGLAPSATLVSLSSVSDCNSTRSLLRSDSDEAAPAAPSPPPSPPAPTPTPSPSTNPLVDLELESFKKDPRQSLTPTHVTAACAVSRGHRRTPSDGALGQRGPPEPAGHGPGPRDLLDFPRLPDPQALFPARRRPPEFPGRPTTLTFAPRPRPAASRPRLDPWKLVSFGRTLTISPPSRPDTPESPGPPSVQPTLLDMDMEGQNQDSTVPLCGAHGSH

panel of 468 kinases [6] = target: T6, panel of 468 kinases (Homo sapiens, UniProt Q15303); settings: ERBB4; 1 μM; read-out: % control
T6 construct: purchased KINOMEscan (ScanMAX) service
T6 sequence (Q15303 26-1308): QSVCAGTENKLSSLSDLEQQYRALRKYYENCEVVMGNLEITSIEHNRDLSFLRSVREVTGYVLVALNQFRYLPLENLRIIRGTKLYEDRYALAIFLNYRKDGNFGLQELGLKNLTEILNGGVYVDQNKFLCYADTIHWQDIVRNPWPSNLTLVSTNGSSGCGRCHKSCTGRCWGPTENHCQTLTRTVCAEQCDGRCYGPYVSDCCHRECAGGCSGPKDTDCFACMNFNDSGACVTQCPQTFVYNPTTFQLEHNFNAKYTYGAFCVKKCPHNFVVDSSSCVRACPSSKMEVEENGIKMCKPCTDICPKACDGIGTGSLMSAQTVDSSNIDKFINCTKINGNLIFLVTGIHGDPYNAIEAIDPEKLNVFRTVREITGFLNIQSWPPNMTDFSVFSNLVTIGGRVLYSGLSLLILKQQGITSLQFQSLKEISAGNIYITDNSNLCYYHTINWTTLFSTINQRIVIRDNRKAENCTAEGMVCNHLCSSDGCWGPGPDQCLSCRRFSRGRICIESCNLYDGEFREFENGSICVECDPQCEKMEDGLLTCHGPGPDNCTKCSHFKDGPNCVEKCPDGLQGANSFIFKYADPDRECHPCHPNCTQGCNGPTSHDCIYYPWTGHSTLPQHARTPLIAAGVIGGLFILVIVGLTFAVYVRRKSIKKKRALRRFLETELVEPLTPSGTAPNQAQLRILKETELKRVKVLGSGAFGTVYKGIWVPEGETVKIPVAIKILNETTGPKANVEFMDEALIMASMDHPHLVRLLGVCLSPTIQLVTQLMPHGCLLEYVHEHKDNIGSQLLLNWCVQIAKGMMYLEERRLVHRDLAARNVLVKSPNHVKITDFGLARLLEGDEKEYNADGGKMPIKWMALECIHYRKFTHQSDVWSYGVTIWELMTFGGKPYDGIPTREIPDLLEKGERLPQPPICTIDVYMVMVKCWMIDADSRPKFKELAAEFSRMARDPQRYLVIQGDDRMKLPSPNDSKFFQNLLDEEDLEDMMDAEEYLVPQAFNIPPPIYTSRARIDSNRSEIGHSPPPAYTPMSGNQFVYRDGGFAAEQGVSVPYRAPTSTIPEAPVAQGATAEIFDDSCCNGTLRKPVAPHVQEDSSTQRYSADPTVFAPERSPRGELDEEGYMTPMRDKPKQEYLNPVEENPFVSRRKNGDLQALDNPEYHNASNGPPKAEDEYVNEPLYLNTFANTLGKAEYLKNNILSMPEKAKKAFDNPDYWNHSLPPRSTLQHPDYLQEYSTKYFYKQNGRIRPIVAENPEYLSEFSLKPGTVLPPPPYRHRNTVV

panel of 468 kinases [7] = target: T7, panel of 468 kinases (Homo sapiens, UniProt Q9UKI8); settings: TLK1; 1 μM; read-out: % control
T7 construct: purchased KINOMEscan (ScanMAX) service
T7 sequence (Q9UKI8 1-766): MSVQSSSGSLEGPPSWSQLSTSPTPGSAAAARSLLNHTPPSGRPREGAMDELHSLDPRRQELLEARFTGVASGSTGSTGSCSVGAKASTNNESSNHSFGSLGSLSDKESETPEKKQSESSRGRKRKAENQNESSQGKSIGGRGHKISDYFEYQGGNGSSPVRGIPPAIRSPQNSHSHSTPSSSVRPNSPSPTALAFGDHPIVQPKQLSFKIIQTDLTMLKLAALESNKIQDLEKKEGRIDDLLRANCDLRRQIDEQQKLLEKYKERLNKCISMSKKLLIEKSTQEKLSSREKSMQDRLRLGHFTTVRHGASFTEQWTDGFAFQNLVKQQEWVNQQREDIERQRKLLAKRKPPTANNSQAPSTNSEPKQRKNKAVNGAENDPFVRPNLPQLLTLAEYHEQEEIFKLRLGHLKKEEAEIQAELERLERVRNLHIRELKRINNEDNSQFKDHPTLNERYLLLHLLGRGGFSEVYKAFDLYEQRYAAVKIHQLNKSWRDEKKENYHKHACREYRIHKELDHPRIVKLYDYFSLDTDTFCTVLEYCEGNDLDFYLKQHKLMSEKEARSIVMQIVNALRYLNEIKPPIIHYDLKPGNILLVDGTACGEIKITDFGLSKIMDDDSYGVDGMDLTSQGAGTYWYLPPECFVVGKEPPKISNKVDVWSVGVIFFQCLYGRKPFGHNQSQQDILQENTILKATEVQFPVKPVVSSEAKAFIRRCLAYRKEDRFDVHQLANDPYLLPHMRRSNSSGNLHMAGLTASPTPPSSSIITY

T1 sequence (O00238 14-502): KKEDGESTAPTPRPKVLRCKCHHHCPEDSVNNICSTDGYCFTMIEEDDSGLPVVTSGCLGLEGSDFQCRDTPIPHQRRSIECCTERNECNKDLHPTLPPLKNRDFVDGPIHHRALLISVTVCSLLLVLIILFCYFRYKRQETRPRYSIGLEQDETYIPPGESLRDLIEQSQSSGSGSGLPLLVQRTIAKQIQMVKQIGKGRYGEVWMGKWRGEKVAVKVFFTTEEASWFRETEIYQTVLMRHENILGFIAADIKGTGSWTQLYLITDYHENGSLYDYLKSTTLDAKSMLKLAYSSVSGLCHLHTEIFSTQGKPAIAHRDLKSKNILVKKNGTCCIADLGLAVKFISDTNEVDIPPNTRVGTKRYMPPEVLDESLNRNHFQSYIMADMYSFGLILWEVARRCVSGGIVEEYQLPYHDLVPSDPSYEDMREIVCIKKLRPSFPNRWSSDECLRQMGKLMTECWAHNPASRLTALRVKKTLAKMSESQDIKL

SMILES | remaining binding at 1 µM (panel of 468 kinases [1]) [%] | remaining binding at 1 µM (panel of 468 kinases [2]) [%] | remaining binding at 1 µM (panel of 468 kinases [3]) [%] | remaining binding at 1 µM (panel of 468 kinases [4]) [%] | remaining binding at 1 µM (panel of 468 kinases [5]) [%] | remaining binding at 1 µM (panel of 468 kinases [6]) [%] | remaining binding at 1 µM (panel of 468 kinases [7]) [%]
CNc1nc(Nc2ccc(S(=O)(=O)N3CCC(N4CCOCC4)CC3)cc2OC)nc2[nH]cc(Cl)c12 [Compound 12, 5-chloro-N2-(2-methoxy-4-((4-morpholinopiperidin-1-yl)sulfonyl)phenyl)-N4-methyl-7H-pyrrolo[2,3-d]pyrimidine-2,4-diamine] | 76 | 100 | 100 | 55 | 99 | 99 | 89
CNc1nc(Nc2ccc(C(=O)N3CCC(N4CCOCC4)CC3)c3c2OCO3)nc2[nH]cc(Cl)c12 [Compound 75, (7-((5-chloro-4-(methylamino)-7H-pyrrolo[2,3-d]pyrimidin-2-yl)amino)benzo[d][1,3]dioxol-4-yl)(4-morpholinopiperidin-1-yl)methanone] | 67 | 96 | 100 | 21 | 93 | 90 | 86
CNc1nc(Nc2ccc(P3(=O)CCN(C4CCOCC4)CC3)cc2OC)nc2[nH]cc(Cl)c12 [Compound 77, 4-(4-((5-chloro-4-(methylamino)-7H-pyrrolo[2,3-d]pyrimidin-2-yl)amino)-3-methoxyphenyl)-1-(tetrahydro-2H-pyran-4-yl)-1,4-azaphosphinane 4-oxide] | 80 | 95 | 100 | 28 | 99 | 88 | 96
